In EP4748837A1, “AROMATIC AMIDE DERIVATIVE, AND PREPARATION METHOD THEREFOR AND USE THEREOF” (Zhejiang Hisun Pharmaceutical Co., Ltd., priority 2023, dated 2025) one finds IC50 data, which are given here for 14 molecules.

The test system of one test is OVCAR-3 cells. The experiment in a line: Inhibition of OVCAR-3 cell proliferation (CellTiter-Glo cell viability). In kind it is cell-based. Particulars: Homo sapiens. Here is the method:
Influences of the compounds of the present invention on OVCAR-3 cell proliferation were determined by the following method. OVCAR-3 cells (containing TP53 R248Q mutation) were purchased from the Cell Bank of Shanghai Institute of Biochemistry and Cell Biology, Chinese Academy of Sciences, and cultured in an RPMI 1640 culture medium containing 10% fetal bovine serum, 100 U penicillin and 100 µg/mL streptomycin. A cell viability was determined by a CellTiter-Glo® Luminescent Cell Viability Assay kit (Promega, article number G7573).
(§1) An experimental method was operated according to steps in the instruction of the kit, which was briefly described as follows: a test compound was dissolved in DMSO first to prepare a 10 mM stock solution, then the stock solution was diluted with the culture medium to prepare a test sample, and a final concentration of the compound was in a range of 1000 nM-0.015 nM. Cells in a logarithmic growth phase were inoculated into a 96-well cell culture plate at a density of 1000 cells per well, cultured in a 5% CO2 incubator at 37°C overnight, and then the test compound was added to continuously culture for 72 hours. After the culture was ended, 50 uL of CellTiter-Glo detection solution was added to each well , shaken for 5 minutes, and then allowed to stand for 10 minutes, and subsequently, a luminance value of each well of the sample was read by a microplate reader in a Luminescence mode. By comparing with the numerical value of a control group (0.3% DMSO), a percentage inhibition rate of the compound at each concentration point was calculated, and then nonlinear regression analysis was carried out based on concentration logarithm-inhibition rate of the compound in GraphPad Prism 5 software, so as to obtain an IC50 value of the compound for inhibiting the cell proliferation, which was as shown in Table 1. Table 1 IC50 data of the compounds of the present invention for inhibiting OVCAR-3 cell proliferation
Background: In ATP-based viability assays light output follows the ATP content of the culture.

For a further test, the system named is HT-29 cells. The experiment in a line: Inhibition of HT-29 cell proliferation (CellTiter-Glo cell viability). The settings on record: Homo sapiens. In kind it is cell-based. Here is the method:
Influences of the compounds of the present invention on HT-29 cell proliferation were determined by the following method. HT-29 cells (containing TP53 R273H mutation) were purchased from the Cell Bank of Shanghai Institute of Biochemistry and Cell Biology, Chinese Academy of Sciences, and cultured in a McCOY's 5A culture medium containing 10% fetal bovine serum, 100 U penicillin and 100 µg/mL streptomycin. A cell viability was determined by a CellTiter-Glo® Luminescent Cell Viability Assay kit (Promega, article number G7573).
as §1, with “for 120” for “for 72”, “each well,” for “each well ,”, “Table 2.” for “Table 1.”, “Table 2” for “Table 1”, “inhibiting HT-29” for “inhibiting OVCAR-3”

For another test, the target named is T1, recombinant human KIF18A (Homo sapiens, UniProt Q8NI77).
T1 construct: purchased GenScript
Nature of the test: Inhibition of KIF18A enzyme activity (ADP-Glo assay). It is filed as biochemical. Particulars: recombinant human KIF18A 100 nM, ATP 60 µM, tubulin, paclitaxel. Here is the method:
Inhibition degrees of the compounds of the present invention on recombinant human KIF18A enzyme activity in vitro were determined by the following method. An ADP-Glo™ Kinase Assay kit (article number V9102) from Promega Company was used in this method. Detailed experimental operation referred to the instruction of the kit.
An experimental process was briefly described as follows: a test compound was dissolved in DMSO first to prepare a stock solution, then the stock solution was gradiently diluted with a reaction buffer A ([…], 0.01% Pluronic F-68), and a final concentration of the test compound in the reaction system was in a range of 10000 nM-0.15 nM; and a KIF18A protein and ATP working solution was prepared by using a reaction buffer B (15 mM Tris, pH 7.5, 10 mM MgCl2, 0.01% Pluronic F-68, 37.5 µg/ml tubulin, 1.25 µM paclitaxel). The reaction was carried out in a 384-well microplate. The test compound and the recombinant human KIF18A protein (final concentration of 100 nM, entrusted to GenScript for expression) were added into the wells and incubated at room temperature for 20 minutes, and subsequently, an ATP solution (component V915A from the ADP-Glo™ Kinase Assay kit, final concentration of 60 µM) was added to the reaction solution and the system was incubated at room temperature for 20 minutes. Subsequently, 5 µL of ADP-Glo Reagent was added to the reaction systemand the system was incubated at room temperature for 50 minutes. Then, 10 µL of Kinase Detection Reagent was added to the reaction system and the system was incubated at room temperature for 30 minutes. After the incubation was ended, a chemiluminiscence intensity value of each well was determined by a microplate reader in a Luminescence mode.
For orientation: ADP-Glo turns the ADP formed in a reaction into a luminescent signal.

Setting [1] is: OVCAR-3 cells (TP53 R248Q mutation), 72 hours culture with compound, read-out: IC50.
Where [2] appears, read: HT-29 cells (TP53 R273H mutation), 120 hours culture with compound, read-out: IC50.

pIC50: −log10 of the molar value. Read-outs that look alike come from different tables or passages of the source.

What is called pIC50 is the IC50 on a negative log10 scale, so that one unit is a factor of ten.

T1 sequence (Q8NI77 whole entry): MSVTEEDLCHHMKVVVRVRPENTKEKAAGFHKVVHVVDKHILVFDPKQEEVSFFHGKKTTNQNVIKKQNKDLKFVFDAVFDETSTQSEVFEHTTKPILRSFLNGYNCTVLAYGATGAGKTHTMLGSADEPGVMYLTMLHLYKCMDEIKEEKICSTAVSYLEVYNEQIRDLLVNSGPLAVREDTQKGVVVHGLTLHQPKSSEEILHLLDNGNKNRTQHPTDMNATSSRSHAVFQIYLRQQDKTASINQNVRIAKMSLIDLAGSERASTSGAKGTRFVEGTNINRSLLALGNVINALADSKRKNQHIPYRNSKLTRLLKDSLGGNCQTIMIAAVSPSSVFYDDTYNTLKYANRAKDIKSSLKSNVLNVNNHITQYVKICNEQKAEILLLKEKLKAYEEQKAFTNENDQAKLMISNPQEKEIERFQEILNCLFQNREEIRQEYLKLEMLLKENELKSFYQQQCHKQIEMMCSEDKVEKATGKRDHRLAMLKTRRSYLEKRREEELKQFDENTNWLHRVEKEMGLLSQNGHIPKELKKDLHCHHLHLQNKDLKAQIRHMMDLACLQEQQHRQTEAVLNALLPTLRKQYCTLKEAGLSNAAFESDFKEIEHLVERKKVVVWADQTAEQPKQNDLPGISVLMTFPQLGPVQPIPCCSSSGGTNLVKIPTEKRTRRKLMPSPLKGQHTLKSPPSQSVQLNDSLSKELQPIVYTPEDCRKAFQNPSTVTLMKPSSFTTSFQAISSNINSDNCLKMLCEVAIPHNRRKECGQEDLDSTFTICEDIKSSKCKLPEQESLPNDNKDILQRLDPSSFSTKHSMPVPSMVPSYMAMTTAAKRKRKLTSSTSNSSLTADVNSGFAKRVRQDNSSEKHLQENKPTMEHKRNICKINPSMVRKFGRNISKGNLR
T1 sequence (P68363 whole entry partner): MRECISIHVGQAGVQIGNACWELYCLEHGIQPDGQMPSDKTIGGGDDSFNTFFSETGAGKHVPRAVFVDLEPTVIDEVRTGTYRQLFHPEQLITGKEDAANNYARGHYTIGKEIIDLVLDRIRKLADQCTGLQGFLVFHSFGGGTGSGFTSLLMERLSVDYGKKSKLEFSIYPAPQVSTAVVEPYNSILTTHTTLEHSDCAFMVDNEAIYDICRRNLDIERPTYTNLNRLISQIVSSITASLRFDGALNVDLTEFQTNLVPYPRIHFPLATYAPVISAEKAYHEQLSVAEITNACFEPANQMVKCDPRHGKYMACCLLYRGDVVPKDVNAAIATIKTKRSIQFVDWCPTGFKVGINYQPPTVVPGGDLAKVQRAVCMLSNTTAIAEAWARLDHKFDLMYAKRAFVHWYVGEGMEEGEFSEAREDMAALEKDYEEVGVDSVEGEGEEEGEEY
T1 sequence (Q9BVA1 whole entry partner): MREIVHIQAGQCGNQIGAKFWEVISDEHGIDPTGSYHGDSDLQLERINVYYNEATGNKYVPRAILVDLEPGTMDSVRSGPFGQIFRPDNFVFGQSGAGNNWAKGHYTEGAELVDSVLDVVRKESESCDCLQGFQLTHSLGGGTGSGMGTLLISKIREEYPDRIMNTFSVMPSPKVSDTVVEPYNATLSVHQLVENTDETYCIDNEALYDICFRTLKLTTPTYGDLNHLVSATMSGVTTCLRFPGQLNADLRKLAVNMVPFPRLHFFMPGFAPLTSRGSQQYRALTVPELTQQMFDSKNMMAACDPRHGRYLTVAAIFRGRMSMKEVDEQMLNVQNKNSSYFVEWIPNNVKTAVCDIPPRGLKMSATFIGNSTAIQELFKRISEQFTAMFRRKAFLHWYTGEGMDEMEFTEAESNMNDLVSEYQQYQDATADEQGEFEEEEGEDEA

For the molecule `CCS(=O)(=O)Nc1ccc(C(=O)Nc2ccc(-c3nnc[nH]3)c(N3CCC(F)(F)CC3)c2)c(N2CCC3(CC2)CC3)c1` [Example 37, N-(3-(4,4-difluoropiperidin-1-yl)-4-(4H-1,2,4-triazol-3-yl)phenyl)-4-(ethylsulfonamido)-2-(6-azaspiro[2.5]octan-6-yl)benz amide], the pIC50 was 8.44 with OVCAR-3 cells (setting [1]), 8.42 in the test with HT-29 cells (setting [2]) and 7.40 on recombinant human KIF18A (read-out: IC50).

In the case of `CCS(=O)(=O)Nc1ccc(C(=O)Nc2ccc(-c3ncn(C)n3)c(N3CCC(F)(F)CC3)c2)c(N2CCC3(CC2)CC3)c1` [Example 39, N-(3-(4,4-difluoropiperidin-1-yl)-4-(1-methyl-1H-1,2,4-triazol-3-yl)phenyl)-4-(ethylsulfon amido)-2-(6-azaspiro[2.5]octan-6-yl)benzamide], the pIC50 with OVCAR-3 cells (setting [1]) was 8.42; with HT-29 cells (setting [2]), 9.59; on recombinant human KIF18A (read-out: IC50), 6.91.

Regarding `CCS(=O)(=O)Nc1ccc(C(=O)Nc2ccc(-n3ccnc3)c(N3CCC(F)(F)CC3)c2)c(N2CCC3(CC2)CC3)c1` [Example 20, N-(3-(4,4-difluoropiperidin-1-yl)-4-(1H-imidazol-1-yl)pheny 1)-4-(ethylsulfonamido)-2-(6-azaspiro[2.5]octan-6-yl)benzamide], the pIC50 was 8.07 in the test on OVCAR-3 cells (setting [1]), 8.22 in the test on HT-29 cells (setting [2]) and 7.29 at recombinant human KIF18A (read-out: IC50).

As to `CCS(=O)(=O)Nc1ccc(C(=O)Nc2ccc(-c3ccnnc3)c(N3CCC(F)(F)CC3)c2)c(N2CCC3(CC2)CC3)c1` [Example 13, N-(3-(4,4-difluoropiperidin-1-yl)-4-(pyridazin-4-yl)phenyl)-4-(ethylsulfonamido)-2-(6-azaspiro[2.5]octan-6-yl)benzamide], the values for the pIC50 with OVCAR-3 cells (setting [1]), in the test on HT-29 cells (setting [2]) and at recombinant human KIF18A (read-out: IC50) were 8.23, 7.94 and 7.08, respectively.

With `O=C(Nc1ccc(-c2ccnnc2)c(N2CCC(F)(F)CC2)c1)c1ccc(NS(=O)(=O)C2CC2)cc1N1CCC2(CC1)CC2` [Example 16, 4-(cyclopropanesulfonamido)-N-(3-(4,4-difluoropiperidin-1-yl)-4-(pyridazin-4-yl)phenyl)-2-(6-azaspiro[2.5]octan-6-yl)b enzamide], the pIC50 with OVCAR-3 cells (setting [1]) is 8.21; in the test on HT-29 cells (setting [2]), 8.34; on recombinant human KIF18A (read-out: IC50) it was 6.83.

For the molecule `CCS(=O)(=O)Nc1ccc(C(=O)Nc2ccc(-n3ncnn3)c(N3CCC(F)(F)CC3)c2)c(N2CCC3(CC2)CC3)c1` [Example 30, N-(3-(4,4-difluoropiperidin-1-yl)-4-(2H-tetrazol-2-yl)phenyl)-4-(ethylsulfonamido)-2-(6-azaspiro[2.5]octan-6-yl)benzamide], the pIC50 with OVCAR-3 cells (setting [1]) is 7.88; with HT-29 cells (setting [2]) it was 8.10; on recombinant human KIF18A (read-out: IC50), 7.10.

Turning to `CCS(=O)(=O)Nc1ccc(C(=O)Nc2ccc(-c3cccnn3)c(N3CCC(F)(F)CC3)c2)c(N2CCC3(CC2)CC3)c1` [Example 12, N-(3-(4,4-difluoropiperidin-1-yl)-4-(pyridazin-3-yl)phenyl)-4-(ethylsulfonamido)-2-(6-azaspiro[2.5]octan-6-yl)benzamide], the figures for the pIC50 in the test on OVCAR-3 cells (setting [1]), in the test with HT-29 cells (setting [2]) and at recombinant human KIF18A (read-out: IC50) were 8.60, 8.41 and 7.20, respectively.

Turning to `CCS(=O)(=O)Nc1ccc(C(=O)Nc2ccc(-n3ccnn3)c(C3CCC(F)(F)CC3)c2)c(N2CCC3(CC2)CC3)c1` [Example 31, N-(3-(4,4-difluorocyclohexyl)-4-(1H-1,2,3-triazol-1-yl)pheny 1)-4-(ethylsulfonamido)-2-(6-azaspiro[2.5]octan-6-yl)benzamide], the pIC50 in the test with OVCAR-3 cells (setting [1]) was 7.80; with HT-29 cells (setting [2]), 8.08; on recombinant human KIF18A (read-out: IC50) it was 6.87.

Take `CCS(=O)(=O)Nc1ccc(C(=O)Nc2ccc(-c3ncn(C)n3)c(N3CC(F)(F)C3)c2)c(N2CCC3(CC2)CC3)c1` [Example 46, N-(3-(3,3-difluoroazetidin-1-y 1)-4-(1-methyl-1H-l,2,4-triazo 1-3-yl)phenyl)-4-(ethylsulfonamido)-2-(6-azaspiro[2.5]octan-6-yl)benzamide]: the pIC50 is 8.43 with OVCAR-3 cells (setting [1]), 9.82 in the test with HT-29 cells (setting [2]) and 6.83 at recombinant human KIF18A (read-out: IC50).

Take `CCS(=O)(=O)Nc1ccc(C(=O)Nc2ccc(-c3nnco3)c(N3CC(F)(F)C3)c2)c(N2CCC3(CC2)CC3)c1` [Example 49, N-(3-(3,3-difluoroazetidin-1-y 1)-4-(1,3,4-oxadiazol-2-yl)phenyl)-4-(ethylsulfonamido)-2-(6-azaspiro[2.5]octan-6-yl)benzamide]: the pIC50 in the test on OVCAR-3 cells (setting [1]) is 7.90; with HT-29 cells (setting [2]), 8.02; at recombinant human KIF18A (read-out: IC50) it was 7.15.

On to `CCS(=O)(=O)Nc1ccc(C(=O)Nc2ccc(-c3ncc[nH]3)c(N3CCC(F)(F)CC3)c2)c(N2CCC3(CC2)CC3)c1` [Example 25, N-(3-(4,4-difluoropiperidin-1-yl)-4-(1H-imidazol-2-yl)pheny 1)-4-(ethylsulfonamido)-2-(6-azaspiro[2.5]octan-6-yl)benzamide], for which the pIC50 in the test with OVCAR-3 cells (OVCAR-3, 72 h) is 8.46; in the test with HT-29 cells (HT-29, 120 h), 8.59; on recombinant human KIF18A, 7.47.

Consider `CCS(=O)(=O)Nc1ccc(C(=O)Nc2ccc(-c3ncccn3)c(N3CCC(F)(F)CC3)c2)c(N2CCC3(CC2)CC3)c1` [Example 14, N-(3-(4,4-difluoropiperidin-1-yl)-4-(pyrimidin-2-yl)phenyl)-4-(ethylsulfonamido)-2-(6-azaspiro[2.5]octan-6-yl)benzamide], for which the pIC50 in the test on OVCAR-3 cells (setting [1]) was 8.23; in the test on HT-29 cells (setting [2]), 8.00; at recombinant human KIF18A (read-out: IC50), 6.92.

Consider `CCS(=O)(=O)Nc1ccc(C(=O)Nc2ccc(-n3cncn3)c(N3CCC(F)(F)CC3)c2)c(N2CCC3(CC2)CC3)c1` [Example 28, N-(3-(4,4-difluoropiperidin-1-yl)-4-(1H-1,2,4-triazol-1-yl)phenyl)-4-(ethylsulfonamido)-2-(6-azaspiro[2.5]octan-6-yl)benz amide], for which the pIC50 with OVCAR-3 cells (setting [1]) is 7.91; in the test with HT-29 cells (setting [2]), 8.08; on recombinant human KIF18A (read-out: IC50), 7.23.

Take `CCS(=O)(=O)Nc1ccc(C(=O)Nc2ccc(-c3ncccn3)c(N3CC(F)(F)C3)c2)c(N2CCC3(CC2)CC3)c1` [Example 18, N-(3-(3,3-difluoroazetidin-1-y 1)-4-(pyrimidin-2-yl)phenyl)-4-(ethylsulfonamido)-2-(6-azaspiro[2.5]octan-6-yl)benzamide]: the pIC50 in the test on OVCAR-3 cells (setting [1]) is 8.19; with HT-29 cells (setting [2]), 9.19; at recombinant human KIF18A (read-out: IC50), 6.83.
